Among the test systems are UO-31 renal; HCT-116 colon; 786-0 renal; SK-MEL-28 melanoma; LOX IMVI melanoma; COLO 205 colon; U251 CNS; OVCAR-8 ovarian; UACC-62 melanoma.
What all share (test): NCI anticancer screen, dose series, 48 h

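Dose response: 5 concentrations. Exposure: 48 h. Format: 96-well plates. Endpoint: linear interpolation; highest concentration if not reached. GI50 = concentration required for 50% inhibition of growth. TGI: total growth inhibition.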

With `Cc1ccc(N2C(=O)C(Cl)=C(Cl)C2=O)cc1`, the TGI in the assay with UO-31 renal is greater than 100 µM; with HCT-116 colon, 32.9 µM; in the assay on 786-0 renal, 31 µM; in the assay on SK-MEL-28 melanoma, 31.5 µM; with LOX IMVI melanoma, 55.5 µM; with COLO 205 colon it was 30.7 µM. For the same compound, the TGI in the assay with U251 CNS is greater than 100 µM.
Regarding `Cn1nc2ccccc2cc1=O`, the TGI with UO-31 renal, with HCT-116 colon, in the assay on 786-0 renal, with OVCAR-8 ovarian, in the assay with SK-MEL-28 melanoma and in the assay with LOX IMVI melanoma was greater than 100 µM in each case. The TGI with COLO 205 colon, with U251 CNS and with UACC-62 melanoma was greater than 100 µM throughout.
In the case of `C[CH2][Sn]([CH2]C)([O]C(=O)c1ccc(F)cc1)[O][Sn]([CH2]C)([CH2]C)[O]C(=O)c1ccc(F)cc1`, the GI50 in the assay with UO-31 renal is greater than 100 µM; with HCT-116 colon it was greater than 100 µM; with 786-0 renal, 53.6 µM; in the assay with OVCAR-8 ovarian, greater than 100 µM; with SK-MEL-28 melanoma, 33.9 µM; with LOX IMVI melanoma, 37.4 µM. Besides, the GI50 in the assay with COLO 205 colon was 59.7 µM; in the assay on U251 CNS, 29.8 µM; with UACC-62 melanoma, greater than 100 µM. Also, the TGI with UO-31 renal, in the assay on HCT-116 colon, with 786-0 renal, in the assay on OVCAR-8 ovarian, in the assay with SK-MEL-28 melanoma and in the assay with LOX IMVI melanoma was greater than 100 µM each time. For the same compound, the TGI in the assay with COLO 205 colon, with U251 CNS and in the assay on UACC-62 melanoma was greater than 100 µM in each case.
On to `COC(=O)Cc1cc(=O)n2c([nH]c3ccccc32)c1C#N`, for which the TGI in the assay with UO-31 renal, in the assay with HCT-116 colon, in the assay with 786-0 renal, in the assay with OVCAR-8 ovarian, in the assay with SK-MEL-28 melanoma and in the assay on LOX IMVI melanoma was greater than 100 µM throughout. The TGI with COLO 205 colon and in the assay with U251 CNS was greater than 100 µM in each case.
`C#Cc1cc(CN(CC(=O)OC(C)(C)C)CC(=O)OC(C)(C)C)nc(CN(CC(=O)OC(C)(C)C)CC(=O)OC(C)(C)C)c1`: the TGI with UO-31 renal came out at 26 µM; in the assay on 786-0 renal, 47.8 µM; in the assay with OVCAR-8 ovarian, 31.6 µM; with SK-MEL-28 melanoma it was 93.8 µM; in the assay with LOX IMVI melanoma, 6.03 µM; with COLO 205 colon, 24.9 µM. Besides, the TGI in the assay on U251 CNS came out at 27.8 µM; in the assay with UACC-62 melanoma, 36.5 µM.
Take `c1ccc2c(c1)[nH]c1c2ncc2[nH]c3ccccc3c21`: the TGI was 8.79 µM in the assay on UO-31 renal; 3.35 µM in the assay with HCT-116 colon; 5.61 µM in the assay with 786-0 renal; 17.2 µM with OVCAR-8 ovarian; 27.7 µM in the assay with SK-MEL-28 melanoma; 6.83 µM in the assay on COLO 205 colon. Further, the TGI in the assay with U251 CNS turned out to be 5.64 µM; with UACC-62 melanoma, 3.36 µM.
On to `Cc1c(CC/C(=N\Nc2ccc([N+](=O)[O-])cc2[N+](=O)[O-])c2ccccc2)c2ccccc2n1C`, for which the TGI in the assay with UO-31 renal, with HCT-116 colon, in the assay on 786-0 renal, in the assay on OVCAR-8 ovarian, with SK-MEL-28 melanoma and in the assay on LOX IMVI melanoma was greater than 100 µM in each case. The TGI in the assay with COLO 205 colon, in the assay with U251 CNS and in the assay with UACC-62 melanoma was greater than 100 µM each time.
Consider `Cc1ccc(NC(=O)CC2C(=O)Nc3ccccc3S2=O)c(C)c1` (stereo unspecified), for which the TGI was 45.3 µM with UO-31 renal; 38.3 µM in the assay on HCT-116 colon; 33.4 µM in the assay with 786-0 renal; 34.1 µM with OVCAR-8 ovarian; greater than 100 µM with SK-MEL-28 melanoma; greater than 87.7 µM in the assay with LOX IMVI melanoma. For the same compound, the TGI in the assay with COLO 205 colon turned out to be 60.5 µM; in the assay with U251 CNS, 27 µM; in the assay on UACC-62 melanoma it was 42.4 µM.
On to `CCCCCCCCCCCCC(CCCCCCCCCCCC)OP(=O)(O)O`, for which the TGI in the assay with UO-31 renal, in the assay on HCT-116 colon, in the assay on 786-0 renal, with OVCAR-8 ovarian, in the assay on SK-MEL-28 melanoma and in the assay on LOX IMVI melanoma was greater than 100 µM throughout. The TGI in the assay on COLO 205 colon, with U251 CNS and in the assay with UACC-62 melanoma was greater than 100 µM in each case.
As to `CCOC(=O)C(C(=O)OCC)=c1sc(=C(C(=O)OCC)C(=O)OCC)s1`, the TGI in the assay with 786-0 renal, in the assay on OVCAR-8 ovarian, with SK-MEL-28 melanoma, in the assay with LOX IMVI melanoma, in the assay with COLO 205 colon and in the assay on UACC-62 melanoma was greater than 100 µM in each case.
On to `COc1ccc(C2C3=C(COC3=O)Oc3cc4c(cc32)OCO4)cc1` (stereo unspecified), for which the TGI in the assay with UO-31 renal was 74 µM; in the assay with HCT-116 colon, greater than 100 µM; in the assay with 786-0 renal it was greater than 100 µM; with OVCAR-8 ovarian it was greater than 100 µM; in the assay on SK-MEL-28 melanoma, greater than 100 µM; in the assay with LOX IMVI melanoma, greater than 100 µM. In addition, the TGI in the assay with COLO 205 colon is 63.6 µM; in the assay on U251 CNS, greater than 100 µM; with UACC-62 melanoma it was greater than 100 µM.
As for `CC1=Nc2ccccc2C12C(c1ccccc1)C(c1ccccc1)C(=O)N1c3ccccc3CC12` (stereo unspecified), the TGI in the assay on UO-31 renal, in the assay on HCT-116 colon, in the assay with 786-0 renal, in the assay with OVCAR-8 ovarian, with SK-MEL-28 melanoma and in the assay on LOX IMVI melanoma was greater than 100 µM in each case. Besides, the TGI with COLO 205 colon, in the assay on U251 CNS and in the assay on UACC-62 melanoma was greater than 100 µM in each case.
As to `COC(=O)[C@@]12C=CC(=O)[C@H]3C[C@@H](C(C(C)C)C1)[C@]32OC` (stereo partly specified), the TGI in the assay with HCT-116 colon, with 786-0 renal, with OVCAR-8 ovarian, in the assay on SK-MEL-28 melanoma, in the assay on COLO 205 colon and in the assay on U251 CNS was greater than 100 µM each time. The compound also gave a TGI in the assay on UACC-62 melanoma greater than 100 µM.
Turning to `O=NN(CCCl)C(=O)N[C@H]1CCCC[C@@H]1Cl`, the TGI with UO-31 renal, in the assay with HCT-116 colon, in the assay on 786-0 renal, with OVCAR-8 ovarian, with SK-MEL-28 melanoma and in the assay on COLO 205 colon was greater than 100 µM throughout. The TGI in the assay with U251 CNS is greater than 100 µM.
For the compound `COC(=O)C1=C(C)N(NC(N)=O)C(C)(O)C12CCOC2=O` (stereo unspecified), the TGI in the assay on UO-31 renal, in the assay on HCT-116 colon, in the assay on 786-0 renal, in the assay with OVCAR-8 ovarian, in the assay on SK-MEL-28 melanoma and in the assay with LOX IMVI melanoma was greater than 100 µM each time. Also, the TGI in the assay on COLO 205 colon and in the assay with U251 CNS was greater than 100 µM in each case.

For the origin of these results see PubChem BioAssay (NCI).
